The values below come from US20080182880A1, “PIOGLITAZONE COMPOSITION” (priority 2006, published 2008).

This data set is described as follows: Comparative bioavailability of Trial 2 of Example 4 and ACTOS tablets 45 mg, open label randomized cross-over single dose study, fasting, 55 subjects. The following applies: human, plasma, oral, calculated from Table 6 results, single dose to humans. The format is in vivo. The procedure:
In determining bioequivalence, for example, between two products such as a commercially available product and a proposed product, pharmacokinetic studies are conducted whereby each of the preparations is administered in a crossover study to volunteer subjects. Serum plasma samples are obtained at regular intervals and assayed for parent drug (or occasionally metabolite) concentrations. For a pharmacokinetic comparison, the plasma concentration data are used to assess key pharmacokinetic parameters such as area under the plasma concentration-time curve (AUC), peak concentration (Cmax) and time to peak plasma concentration (Tmax).
R represents reference product, i.e., ACTOS tablets 45 mg.
Study design: Open label randomized cross-over single dose study under fasting conditions.

SMILES strings stand for the structures. Where two headings read alike, the source gives them in different places.

The term Cmax denotes the highest concentration seen after dosing. `CCc1ccc(CCOc2ccc(CC3SC(=O)NC3=O)cc2)nc1` (racemic) [Pioglitazone, (±)-5-[[4-[2-(5-ethyl-2-pyridinyl)ethoxy]phenyl]methyl]-2,4-]thiazolidinedione]: the AUC(0-inf) runs as follows: (read-out: therapeutically equivalent range of plasma pioglitazone AUC0-∞) 12300 to 19100 ng·h/mL; (read-out: therapeutically equivalent range of plasma pioglitazone AUC0-∞T) 11900 to 18500 ng·h/mL. In addition, the Cmax (read-out: therapeutically equivalent range of plasma pioglitazone Cmax) is 1030 to 1610 ng/mL.
